The source of these data is patent US20250382273A1 (INSTITUT NATIONAL DE LA SANTE ET DE LA RECHERCHE MEDICALE, priority 2022, published 2025).

Bounds are passed on as bounds.

In the first assay the test system is M. tuberculosis H37Rv_gfp. It is filed as cell-based, Mycobacterium tuberculosis. The note with it: in combination with pretomanid 20 ng·mL−1; 5 days at 37° C.; […]; read-out: EC50 H37Rv_gfp.
Turning to `Cc1ccc2nc(NC(=O)[C@@H]3C4CCC(C4)[C@@H]3C(=O)O)sc2c1` (stereo in doubt) [Example 3, 3-[(6-methyl-1,3-benzothiazol-2-yl)carbamoyl]norbornane-2-carboxylic acid], the EC50 (in general, the midpoint of the concentration-response curve) fell in the range of 1 to 5 µM.
For the compound `Cc1ccc2nc(N3C(=O)[C@@H]4[C@@H]5CC[C@@H](C5)[C@@H]4C3=O)sc2c1` [Example 4, (1S,2S,6R,7R)-4-(6-methyl-1,3-benzothiazol-2-yl)-4-azatricyclo[5.2.1.02,6]decane-3,5-dione], the EC50 lay in the range of 10 to 20 µM.
For `COc1ccc2sc(NC(=O)[C@@H]3C4C=CC(C4)[C@@H]3C(=O)O)nc2c1` (stereo partly shown) [Example 5, 3-[(5-methoxy-1,3-benzothiazol-2-yl)carbamoyl]bicyclo[2.2.1]hept-5-ene-2-carboxylic acid], the EC50 lay within 1 to 5 µM.
As to `COc1ccc2nc(NC(=O)[C@@H]3C4C=CC(C4)[C@@H]3C(=O)O)sc2c1` (stereo partly shown) [Example 6, 3-[(6-methoxy-1,3-benzothiazol-2-yl)carbamoyl]bicyclo[2.2.1]hept-5-ene-2-carboxylic acid], the EC50 was 1 to 5 µM.
The same measure, in the same setting: for `CCOc1ccc2nc(NC(=O)[C@@H]3C4C=CC(C4)[C@@H]3C(=O)O)sc2c1` (stereo partly shown) [Example 7, 3-[(6-ethoxy-1,3-benzothiazol-2-yl)carbamoyl]bicyclo[2.2.1]hept-5-ene-2-carboxylic acid] the value was under 1 µM.
For the compound `CCOc1ccc2nc(N3C(=O)[C@@H]4[C@H](C3=O)[C@@H]3C=C[C@H]4C3)sc2c1` [Example 8, (1R,2S,6R,7S)-4-(6-ethoxy-1,3-benzothiazol-2-yl)-4-azatricyclo[5.2.1.02,6]dec-8-ene-3,5-dione], the EC50 was under 1 µM.
Take `COc1cc2nc(NC(=O)[C@@H]3C4C=CC(C4)[C@@H]3C(=O)O)sc2cc1OC` (stereo partly shown) [Example 9, 3-[(5,6-dimethoxy-1,3-benzothiazol-2-yl)carbamoyl]bicyclo[2.2.1]hept-5-ene-2-carboxylic acid]: the EC50 lay within 5 to 10 µM.
Consider `O=C(Nc1nc2cc3c(cc2s1)OCCO3)[C@@H]1C2C=CC(C2)[C@@H]1C(=O)O` (stereo partly shown) [Example 10, 3-(6,7-dihydro-[1,4]dioxino[2,3-f][1,3]benzothiazol-2-ylcarbamoyl) bicyclo[2.2.1]hept-5-ene-2-carboxylic acid], for which the EC50 is 10 to 20 µM.
In the case of `CCc1ccc2nc(NC(=O)[C@@H]3C4C=CC(C4)[C@@H]3C(=O)O)sc2c1` (stereo partly shown) [Example 11, 3-[(6-ethyl-1,3-benzothiazol-2-yl)carbamoyl]bicyclo[2.2.1]hept-5-ene-2-carboxylic acid], the EC50 is under 1 µM.
Turning to `CC(C)(C)c1ccc2nc(NC(=O)[C@@H]3C4C=CC(C4)[C@@H]3C(=O)O)sc2c1` (stereo partly shown) [Example 12, 3-[(6-tert-butyl-1,3-benzothiazol-2-yl)carbamoyl]bicyclo[2.2.1]hept-5-ene-2-carboxylic acid], the EC50 was under 1 µM.
As for `Cc1cc(C)c2nc(NC(=O)[C@@H]3C4C=CC(C4)[C@@H]3C(=O)O)sc2c1` (stereo partly shown) [Example 13, 3-[(4,6-dimethyl-1,3-benzothiazol-2-yl)carbamoyl]bicyclo[2.2.1]hept-5-ene-2-carboxylic acid], the EC50 was under 1 µM.
Take `Cc1cc2nc(NC(=O)[C@@H]3C4C=CC(C4)[C@@H]3C(=O)O)sc2cc1C` (stereo partly shown) [Example 14, 3-[(5,6-dimethyl-1,3-benzothiazol-2-yl)carbamoyl]bicyclo[2.2.1]hept-5-ene-2-carboxylic acid]: the EC50 was under 1 µM.
Turning to `Cc1ccc2sc(NC(=O)[C@@H]3C4C=CC(C4)[C@@H]3C(=O)O)nc2c1C` (stereo partly shown) [Example 15, 3-[(4,5-dimethyl-1,3-benzothiazol-2-yl)carbamoyl]bicyclo[2.2.1]hept-5-ene-2-carboxylic acid], the EC50 is under 1 µM.
On the same count and under the same terms, the same measure for `Cc1cccc2sc(NC(=O)[C@@H]3C4C=CC(C4)[C@@H]3C(=O)O)nc12` (stereo partly shown) [Example 16, 3-[(4-methyl-1,3-benzothiazol-2-yl)carbamoyl]bicyclo[2.2.1]hept-5-ene-2-carboxylic acid]: under 1 µM.
As to `O=C(Nc1nc2ccc(Oc3ccccc3)cc2s1)[C@@H]1C2C=CC(C2)[C@@H]1C(=O)O` (stereo partly shown) [Example 17, 3-[(6-phenoxy-1,3-benzothiazol-2-yl)carbamoyl]bicyclo[2.2.1]hept-5-ene-2-carboxylic acid], the EC50 is under 1 µM.
The same measure, in the same setting: the same measure for `O=C1[C@@H]2[C@H](C(=O)N1c1nc3ccc(Oc4ccccc4)cc3s1)[C@@H]1C=C[C@H]2C1` [Example 19, (1R,2S,6R,7S)-4-(6-phenoxy-1,3-benzothiazol-2-yl)-4-azatricyclo[5.2.1.02,6]dec-8-ene-3,5-dione]: under 1 µM; for `O=C(Nc1nc2ccc(Cc3ccccc3)cc2s1)[C@@H]1C2C=CC(C2)[C@@H]1C(=O)O` (stereo partly shown) [Example 20, 3-[(6-benzyl-1,3-benzothiazol-2-yl)carbamoyl]bicyclo[2.2.1]hept-5-ene-2-carboxylic acid]: under 1 µM.
Same read-out and setting: for `O=C(Nc1nc2ccc(Oc3ccc(F)cc3)cc2s1)[C@@H]1C2C=CC(C2)[C@@H]1C(=O)O` (stereo partly shown) [Example 21, 3-[[6-(4-fluorophenoxy)-1,3-benzothiazol-2-yl]carbamoyl]bicyclo[2.2.1]hept-5-ene-2-carboxylic acid] the value was under 1 µM.
Regarding `O=C(Nc1nc2ccc(Oc3ccc(C(F)(F)F)cc3)cc2s1)[C@@H]1C2C=CC(C2)[C@@H]1C(=O)O` (stereo partly shown) [Example 22, 3-[[6-[4-(trifluoromethyl)phenoxy]-1,3-benzothiazol-2-yl]carbamoyl]bicyclo[2.2.1]hept-5-ene-2-carboxylic acid], the EC50 is 1 to 5 µM.
As to `O=C1[C@@H]2[C@H](C(=O)N1c1nc3ccc(Oc4ccc(C(F)(F)F)cc4)cc3s1)[C@@H]1C=C[C@H]2C1` [Example 23, (1R,2S,6R,7S)-4-[6-[4-(trifluoromethyl)phenoxy]-1,3-benzothiazol-2-yl]-4-azatricyclo[5.2.1.02,6]dec-8-ene-3,5-dione], the EC50 lay in the range of 1 to 5 µM.
Take `O=C(Nc1nc2ccc(Oc3ccncc3)cc2s1)[C@@H]1C2C=CC(C2)[C@@H]1C(=O)O` (stereo partly shown) [Example 24, 3-[[6-(4-pyridyloxy)-1,3-benzothiazol-2-yl]carbamoyl]bicyclo[2.2.1]hept-5-ene-2-carboxylic acid]: the EC50 was in the range of 5 to 10 µM.
As to `O=C(Nc1nc2ccc(Oc3ncccc3C(F)(F)F)cc2s1)[C@@H]1C2C=CC(C2)[C@@H]1C(=O)O` (stereo partly shown) [Example 25, 3-[[6-[[3-(trifluoromethyl)-2-pyridyl]oxy]-1,3-benzothiazol-2-yl]carbamoyl]bicyclo[2.2.1]hept-5-ene-2-carboxylic acid], the EC50 lay in the range of 1 to 5 µM.
On to `O=C1[C@@H]2[C@H](C(=O)N1c1nc3ccc(Oc4ncccc4C(F)(F)F)cc3s1)[C@@H]1C=C[C@H]2C1` [Example 26, (1R,2S,6R,7S)-4-[6-[[3-(trifluoromethyl)-2-pyridyl]oxy]-1,3-benzothiazol-2-yl]-4-azatricyclo[5.2.1.02,6]dec-8-ene-3,5-dione], for which the EC50 was 1 to 5 µM.
For the compound `Cc1ccnc(Oc2ccc3nc(NC(=O)[C@@H]4C5C=CC(C5)[C@@H]4C(=O)O)sc3c2)c1` (stereo partly shown) [Example 29, 3-[[6-[(4-methyl-2-pyridyl)oxy]-1,3-benzothiazol-2-yl]carbamoyl]bicyclo[2.2.1]hept-5-ene-2-carboxylic acid], the EC50 is under 1 µM.
`Cc1ccnc(Oc2ccc3nc(N4C(=O)[C@@H]5C6C=CC(C6)[C@@H]5C4=O)sc3c2)c1` [Example 30]: the EC50 is under 1 µM.
On to `N#Cc1ccnc(Oc2ccc3nc(N4C(=O)[C@@H]5[C@H](C4=O)[C@@H]4C=C[C@H]5C4)sc3c2)c1` [Example 31, 2-[[2-[(1R,2S,6R,7S)-3,5-dioxo-4-azatricyclo[5.2.1.02,6]dec-8-en-4-yl]-1,3-benzothiazol-6-yl]oxy]pyridine-4-carbonitrile], for which the EC50 lay in the range of 1 to 5 µM.
For `O=C(Nc1nc2ccc(Oc3ccnc(C(F)(F)F)c3)cc2s1)[C@@H]1C2C=CC(C2)[C@@H]1C(=O)O` (stereo partly shown) [Example 32, 3-[[6-[[2-(trifluoromethyl)-4-pyridyl]oxy]-1,3-benzothiazol-2-yl]carbamoyl]bicyclo[2.2.1]hept-5-ene-2-carboxylic acid], the EC50 was under 1 µM.
For the compound `O=C1[C@@H]2[C@H](C(=O)N1c1nc3ccc(Oc4cccc(C(F)(F)F)n4)cc3s1)[C@@H]1C=C[C@H]2C1` [Example 34, (1R,2S,6R,7S)-4-[6-[[6-(trifluoromethyl)-2-pyridyl]oxy]-1,3-benzothiazol-2-yl]-4-azatricyclo[5.2.1.02,6]dec-8-ene-3,5-dione], the EC50 fell in the range of 1 to 5 µM.
Same read-out and setting: for `O=C(Nc1nc2ccc(Oc3ccc(C(F)(F)F)cn3)cc2s1)[C@@H]1C2C=CC(C2)[C@@H]1C(=O)O` (stereo partly shown) [Example 35, 3-[[6-[[5-(trifluoromethyl)-2-pyridyl]oxy]-1,3-benzothiazol-2-yl]carbamoyl]bicyclo[2.2.1]hept-5-ene-2-carboxylic acid] the value was 1 to 5 µM; for `O=C1[C@@H]2[C@H](C(=O)N1c1nc3ccc(Oc4ccc(C(F)(F)F)cn4)cc3s1)[C@@H]1C=C[C@H]2C1` [Example 36, (1R,2S,6R,7S)-4-[6-[[5-(trifluoromethyl)-2-pyridyl]oxy]-1,3-benzothiazol-2-yl]-4-azatricyclo[5.2.1.02,6]dec-8-ene-3,5-dione], under 1 µM.
For the compound `O=C(Nc1nc2ccc(Oc3ccc(Br)cn3)cc2s1)[C@@H]1C2C=CC(C2)[C@@H]1C(=O)O` (stereo partly shown) [Example 37, 3-[[6-[(5-bromo-2-pyridyl)oxy]-1,3-benzothiazol-2-yl]carbamoyl]bicyclo [2.2.1]hept-5-ene-2-carboxylic acid], the EC50 lay within 1 to 5 µM.
As for `O=C(O)C1C2C=CC(C2)C1C(=O)Nc1nc2ccc([N+](=O)[O-])cc2s1` (stereo not shown) [Example 38, 3-[(6-nitro-1,3-benzothiazol-2-yl)carbamoyl]bicyclo[2.2.1]hept-5-ene-2-carboxylic acid], the EC50 is 1 to 5 µM.

The assay is the same for the next values; noted with them: in combination with pretomanid, unit inferred; read-out: average EC50 H37Rv_gfp.
Regarding `CCOc1ccc2nc(NC(=O)[C@@H]3C4C=CC(C4)[C@@H]3C(=O)O)sc2c1` (stereo partly shown) [Example 7, 3-[(6-ethoxy-1,3-benzothiazol-2-yl)carbamoyl]bicyclo[2.2.1]hept-5-ene-2-carboxylic acid], the half-maximal effective concentration (EC50) is 0.15 µM.
As for `O=C(Nc1nc2ccc(Oc3ccc(F)cc3)cc2s1)[C@@H]1C2C=CC(C2)[C@@H]1C(=O)O` (stereo partly shown) [Example 21, 3-[[6-(4-fluorophenoxy)-1,3-benzothiazol-2-yl]carbamoyl]bicyclo[2.2.1]hept-5-ene-2-carboxylic acid], the EC50 stood at 0.27 µM.
Turning to `O=C(Nc1nc2ccc(Oc3ccnc(C(F)(F)F)c3)cc2s1)[C@@H]1C2C=CC(C2)[C@@H]1C(=O)O` (stereo partly shown) [Example 32, 3-[[6-[[2-(trifluoromethyl)-4-pyridyl]oxy]-1,3-benzothiazol-2-yl]carbamoyl]bicyclo[2.2.1]hept-5-ene-2-carboxylic acid], the EC50 was determined as 0.32 µM.
For the compound `O=C1[C@@H]2[C@H](C(=O)N1c1nc3ccc(Oc4ccc(C(F)(F)F)cn4)cc3s1)[C@@H]1C=C[C@H]2C1` [Example 36, (1R,2S,6R,7S)-4-[6-[[5-(trifluoromethyl)-2-pyridyl]oxy]-1,3-benzothiazol-2-yl]-4-azatricyclo[5.2.1.02,6]dec-8-ene-3,5-dione], the EC50 worked out at 0.22 µM.

Staying with this assay, now noted: read-out: EC50 H37Rv_gfp.
On to `O=C1[C@@H]2[C@H](C(=O)N1c1nc3ccc(Oc4cc(C(F)(F)F)ccn4)cc3s1)[C@@H]1C=C[C@H]2C1` [Example 28, (1R,2S,6R,7S)-4-[6-[[4-(trifluoromethyl)-2-pyridyl]oxy]-1,3-benzothiazol-2-yl]-4-azatricyclo[5.2.1.02,6]dec-8-ene-3,5-dione], for which the EC50 is under 1 µM.
